{"source": "patent US9585382B2", "about": "“Composition comprising a pesticide and an acetal solvent” (priority 2011, dated 2017)", "key": {"physchem": {"assay": "physchem", "settings": "for solubility: 20 °C, organic solvent or mixture", "procedure": "A) Pyraclostrobin was added at 20° C. to benzaldehyde dimethyl acetal or p-anisaldehyde dimethyl acetal, with stirring."}, "[1]": {"assay": "Flash point (DIN 53213-1)", "format": "physicochemical", "settings": "measured as specified in DIN 53213-1"}, "[2]": {"settings": "EU directive 67/548/EEC, 1999/45/EC or 88/379/EEC; cited from earlier work"}, "Viscosity": {"assay": "Viscosity", "format": "physicochemical", "settings": "20° C."}, "[3]": {"procedure": "The solubility of benzaldehyde dimethyl acetal or p-anisaldehyde dimethyl acetal in water at 20° C. was analyzed."}}, "data": [{"smiles": "C#CCN1C(=O)C(F)(F)Oc2cc(F)c(-n3c(=O)n(C)c(=S)n(C)c3=O)cc21", "note": "[1,5-dimethyl-6-thioxo-3-(2,2,7-trifluoro-3-oxo-4-(prop-2-ynyl)-3,4-dihydro-2H-benzo[b][1,4]oxazin-6-yl)-1,3,5-triazinan-2,4-dione]", "values": [{"measurement": "solubility", "setting": "physchem; maximum solubility in Solvesso 150 ND", "value": 19, "unit": "mg/mL"}, {"measurement": "solubility", "setting": "physchem; maximum solubility in Solvesso 200 ND", "value": 63, "unit": "mg/mL"}, {"measurement": "solubility", "setting": "physchem; maximum solubility in p-anisaldehyde dimethyl acetal", "value": 214, "unit": "mg/mL"}]}, {"smiles": "COC(OC)c1ccccc1", "note": "[Benzaldehyde dimethyl acetal, reference compound]", "values": [{"measurement": "flash point", "setting": "[1]", "value": 69, "unit": "°C"}, {"measurement": "EU R phrase", "setting": "[2]", "value": "R22—harmful if swallowed"}, {"measurement": "EU hazard classification", "setting": "[2]", "value": "Xn—harmful"}]}, {"smiles": "COC(=O)N(OC)c1ccccc1COc1ccn(-c2ccc(Cl)cc2)n1", "note": "[Pyraclostrobin, reference compound]", "values": [{"measurement": "solubility in benzaldehyde dimethyl acetal", "setting": "physchem; 20° C., with stirring, solvent benzaldehyde dimethyl acetal (not inventive)", "value": "at least 50 % by weight"}, {"measurement": "solubility in p-anisaldehyde dimethyl acetal", "setting": "physchem; 20° C., with stirring, solvent p-anisaldehyde dimethyl acetal", "value": "at least 50 % by weight"}]}, {"smiles": "COc1ccc(C(OC)OC)cc1", "note": "[p-Anisaldehyde dimethyl acetal]", "values": [{"measurement": "viscosity", "setting": "Viscosity", "value": 5.5, "unit": "mPas"}, {"measurement": "flash point", "setting": "[1]", "value": 114, "unit": "°C"}, {"measurement": "EU R phrase", "setting": "[2]", "value": "without R phrase"}, {"measurement": "EU hazard classification", "setting": "[2]", "value": "without classification"}, {"measurement": "solubility in water", "setting": "[3]", "value": "≤ 0.1", "unit": "% by weight"}]}]}
